Patent publication US20250295625A1, “AGENT FOR PROMOTING ODONTOBLAST PROPAGATION AND DIFFERENTIATION” (SUN MEDICAL CO., LTD., priority 2019, published 2025)

What was measured:
Assay type in all cases: cell-based
[1] = system: MDPC-23 cell (rat dental papilla-derived cell), a rat odontoblast-like cell line; test: Odontoblast proliferation test (CCK-8 assay); details: FIG. 4
Protocol: A Dulbecco's modified Eagle's medium (DMEM) added with 5% by mass of fetal bovine serum (FBS) was prepared. Then, an MDPC-23 cell (rat dental papilla-derived cell), which is a rat odontoblast-like cell line, was cultured in DMEM. Subsequently, 0.1 mL of DMEM where the MDPC-23 cells were cultured was injected into each well in a microplate (96 wells) so that 1000 MDPC-23 cells were distributed into each well.
Next, the odontoblast proliferation/differentiation promoting agents of Examples 1 to 10 and ultrapure water (control) were individually added to corresponding wells. Then, the added mixture was allowed to stand at ordinary temperature (25° C.) for 5 days. Thereafter, the proliferation of the MDPC-23 cells was evaluated using a kit for measuring the number of living cells (CCK-8: Cell Counting Kit-8).
In the CCK-8 assay, a microplate reader (measurement wavelength: 450 nm) was used. The CCK-8 assay was repeated 6 times.
The results of the CCK-8 assay in Examples 1 to 5 and the control were shown in FIG. 3 and the results of the CCK-8 assay in Examples 4, 6 to 10 and the control were shown in FIG. 4.

[2] = system: mesenchymal stem cell (MSC); test: Differentiation test of mesenchymal stem cells into odontoblasts (real-time PCR); details: MSC, 10, 17, and 24 days
Protocol: A DMEM for culturing mesenchymal stem cell (MSC) was prepared in the same manner as the measurement of cell survival rate, except that hDPSC was replaced with MSC.
Next, the odontoblast proliferation/differentiation promoting agent of Example 12 and ultrapure water (control) were individually dissolved directly in the DMEM for culturing MSC. Then, DMEM was subjected to real-time PCR when allowed to stand for 10, 17, and 24 days. As an internal standard, β-actin was used.
mRNA expression levels of RNA-bone sialoprotein (BSP) are shown in FIG. 8A. mRNA expression levels of RNA-dentin matrix protein (rDMP-1) are shown in FIG. 8B.

[3] = system: human dental pulp stem cell (hDPSC); test: Calcification state of hDPSC culture (alkaline phosphatase measurement, alizarin red S staining); details: ALPase at 14, 21, 28 days (FIG. 8), alizarin red S at 30 and 32 days (FIGS. 9A, 9B)
Protocol: When DMEM containing the odontoblast proliferation/differentiation promoting agent of Example 12 and ultrapure water (control) therein was allowed to stand for 14, 21, and 28 days, the calcification state thus obtained was evaluated via alkaline phosphatase (ALPase) measurement.
Further, when DMEM containing the odontoblast proliferation/differentiation promoting agents of Example 12 and Comparative Examples 1 to 4 and ultrapure water (control) therein was allowed to stand for 30 and 32 days, the calcification state thus obtained was evaluated via alizarin red S staining measurement. The evaluation of the calcification state was performed using one-way ANOVA and Tukey's HSD post-hoc test with a significance level set at 1%

[4] = system: human dental pulp stem cell (hDPSC); test: Differentiation test of human dental pulp stem cells into odontoblasts (real-time PCR); details: sample 5% by mass, 24 days, FIGS. 7A to 7E; for odontoblast-specific genes (BSP, rOPN, rOCB, rDSPP, and rDMP-1) mRNA expression: β-actin internal standard
Protocol: A DMEM for culturing hDPSC was prepared in the same manner as in the measurement of cell survival rate. […] The concentration of the sample in each odontoblast proliferation/differentiation promoting agent was 5% by mass. • Calcium salt of […]: […] (Comparative Example 1), • Calcium hydroxide: CH (Comparative Example 2), • Mineral trioxide aggregate: […] As an internal standard, β-actin was used. mRNA expression levels of RNA-bone sialoprotein (BSP) are shown in FIG. 7A. mRNA expression levels of RNA-osteopontin (rOPN) are shown in FIG. 7B. mRNA expression levels of RNA-osteocalcin (rOCN) are shown in FIG. 7C. mRNA expression levels of RNA-dentin sialophosphoprotein (rDSPP) are shown in FIG. 7D. mRNA expression levels of RNA-dentin matrix protein (rDMP-1) are shown in FIG. 7E.

C=C(C)C(=O)OCCOC(=O)c1ccc(C(=O)[O-])c(C(=O)[O-])c1.[Ca+2] [C-MET, calcium salt of 4-methacryloyloxyethyltrimellitic acid]
effect of promoting proliferation and/or differentiation of the MDPC-23 cells ([1]; as the concentration of C-MET was increased to 500 μg/mL (Example 7)): gradually improved
effect of promoting proliferation and/or differentiation of the MDPC-23 cells ([1]; when the concentration of C-MET exceeded 500 μg/mL): not found any further improvement
differentiation of MSC into odontoblasts [2]: promoted
odontoblast-specific genes (BSP, rDMP-1) mRNA expression ([2]; β-actin internal standard): increased
calcification [3]: promoted
differentiation of hDPSC into odontoblasts [4]: promoted
odontoblast-specific genes (BSP, rOPN, rOCB, rDSPP, and rDMP-1) mRNA expression [4]: increased

[Ca+2].[OH-].[OH-] [CH, Calcium hydroxide, reference compound]
calcification [3]: calcification was found
differentiation of hDPSC into odontoblasts [4]: not observed
odontoblast-specific genes (BSP, rOPN, rOCB, rDSPP, and rDMP-1) mRNA expression [4]: no increase

[Ca+2].[Cl-].[Cl-] [CaCl2, Calcium chloride]
calcification [3]: calcification was found
